# Laboratory results reported in patent publication US6455540B1, “Methods of use of quinolone compounds against anaerobic pathogenic bacteria” (priority 1999, dated 2002).
# Assays:
# Assay in all cases: Agar dilution MIC
# [1] = system: Peptostreptococcus prevotii; type: cell-based; conditions: Anaerococcus prevotii, read-out: Minimal Inhibitory Concentration 50% (MIC50); 9 isolates
# Clostridium dfficile = type: cell-based, Clostridium difficile; conditions: Clostridium
# Veillonella spp. = type: cell-based; conditions: Veillonella, 24 isolates
# Fusobacterium varium = type: cell-based; conditions: Fusobacterium varium, 17 isolates
# Porphyromonas macaccae = type: cell-based; conditions: 13 isolates
# Fusobacterium russii = type: cell-based; conditions: Fusobacterium russii
# Bacteroides tectum = type: cell-based; conditions: 22 isolates
# Clostridium ramosum = type: cell-based; conditions: Thomasclavelia ramosa, 10 isolates
# Actinomyces israelii = type: cell-based; conditions: Actinomyces israelii, read-out: Minimal Inhibitory Concentration 50% (MIC50); 6 isolates
# [2] = system: Peptostreptococcus asaccharolyticus; type: cell-based; conditions: Peptoniphilus asaccharolyticus, 11 isolates
# Prevotella intermedia = type: cell-based; conditions: Prevotella intermedia, 11 isolates
# Porphyromonas spp. = type: cell-based, Porphyromonas cangingivalis, cansulci, circumdentaria, levii; conditions: 11 isolates
# [3] = system: Prevotella melaninogenica; type: cell-based; conditions: 12 isolates
# [4] = system: Fusobacterium spp group 1; type: cell-based; conditions: Fusobacterium, 19 isolates
# Bacteroides ureolyticus = type: cell-based; conditions: 17 isolates
# [5] = system: Peptostreptococcus magnus; type: cell-based; conditions: Finegoldia magna, 13 isolates
# [6] = system: Anaerobiospirillum succiniciproducens; type: cell-based; conditions: 3 isolates
# [7] = system: Porphyromonas asaccharolyticus; type: cell-based, Porphyromonas asaccharolytica; conditions: Porphyromonas, 11 isolates
# [8] = system: Actinomyces odontolyticus; type: cell-based; conditions: Schaalia odontolytica, 10 isolates
# [9] = system: Prevotella buccae-oris group; type: cell-based; conditions: 22 isolates
# Bilophila wadsworthia = type: cell-based; conditions: 16 isolates, agar supplemented with pyruvate
# Porphyromonas canoris = type: cell-based; conditions: 10 isolates
# [10] = system: Peptostreptococcus micros; type: cell-based; conditions: 12 isolates
# [11] = system: Fusobacterium spp. group 2; type: cell-based, Fusobacterium mortiferum, necrogenes, ulcerans; conditions: Fusobacterium, 12 isolates
# Prevotella bivia = type: cell-based; conditions: Prevotella bivia, 21 isolates
# Bacteroides gracilis = type: cell-based, Bacteroides gracilis (Campylobacter gracilis); conditions: 11 isolates
# [12] = system: Anaerobiospirillum thomasii; type: cell-based; conditions: 13 isolates
# [13] = system: Clostridium clostridioforme; type: cell-based; conditions: Clostridium, 11 isolates
# Porphyromonas gingivalis = type: cell-based; conditions: 13 isolates
# [14] = system: Prevotella denticola/loeschii group; type: cell-based; conditions: 6 isolates
# Clostridium inocuum = type: cell-based, Clostridium innocuum; conditions: Clostridium, 11 isolates
# [15] = system: Prevotella heparinolytica; type: cell-based; conditions: 16 isolates
# [16] = read-out: Minimal Inhibitory Concentration 50% (MIC50)
# [17] = read-out: Minimal Inhibitory Concentration 90% (MIC90)
# [18] = Porphyromonas, read-out: Minimal Inhibitory Concentration 50% (MIC50)
# [19] = Porphyromonas, read-out: Minimal Inhibitory Concentration 90% (MIC90)
structure (smiles),measurement,setting,value
CC[C@H]1OC(=O)[C@H](C)[C@@H](O[C@H]2C[C@@](C)(OC)[C@@H](O)[C@H](C)O2)[C@H](C)[C@@H](O[C@@H]2O[C@H](C)C[C@H](N(C)C)[C@H]2O)[C@](C)(OC)C[C@@H](C)C(=O)[C@H](C)[C@@H](O)[C@]1(C)O [Clarithromycin],MIC50,[1],> 32 µg/mL
same,MIC50,Clostridium dfficile; [16],0.5 µg/mL
same,MIC90,"Clostridium dfficile; read-out: Minimal Inhibitory Concentration 90% (MIC90), 14 isolates",> 32 µg/mL
same,MIC90,Veillonella spp.; [17],> 32 µg/mL
same,MIC50,Veillonella spp.; [16],16 µg/mL
same,MIC50,Fusobacterium varium; [16],> 32 µg/mL
same,MIC90,Fusobacterium varium; [17],> 32 µg/mL
same,Minimal Inhibitory Concentration Range,Porphyromonas macaccae,0.06 to 0.125 µg/mL
same,MIC50,Porphyromonas macaccae; [18],0.125 µg/mL
same,MIC90,Porphyromonas macaccae; [19],0.125 µg/mL
same,MIC50,Fusobacterium russii; [16],4 µg/mL
same,MIC90,Fusobacterium russii; [17],> 32 µg/mL
same,Minimal Inhibitory Concentration Range,Bacteroides tectum,0.125 µg/mL
same,MIC90,"Bacteroides tectum; Bacteroides pyogenes, read-out: Minimal Inhibitory Concentration 90% (MIC90)",0.125 µg/mL
same,MIC50,"Bacteroides tectum; Bacteroides pyogenes, read-out: Minimal Inhibitory Concentration 50% (MIC50)",0.125 µg/mL
same,MIC50,Clostridium ramosum; [16],0.5 µg/mL
same,MIC90,Clostridium ramosum; [17],> 32 µg/mL
same,MIC50,Actinomyces israelii,≤ 0.015 µg/mL
same,MIC50,[2]; [16],2 µg/mL
same,MIC90,[2]; [17],> 32 µg/mL
same,MIC90,Prevotella intermedia; [17],0.125 µg/mL
same,MIC50,Prevotella intermedia; [16],≤ 0.015 µg/mL
same,Minimal Inhibitory Concentration Range,Porphyromonas spp.,0.06 to 0.125 µg/mL
same,MIC50,Porphyromonas spp.; [18],0.06 µg/mL
same,MIC90,Porphyromonas spp.; [19],0.125 µg/mL
same,Minimal Inhibitory Concentration Range,[3],0.06 to 4 µg/mL
same,MIC90,"[3]; Prevotella melaninogenica, read-out: Minimal Inhibitory Concentration 90% (MIC90)",1 µg/mL
same,MIC50,"[3]; Prevotella melaninogenica, read-out: Minimal Inhibitory Concentration 50% (MIC50)",0.125 µg/mL
same,MIC50,"[4]; GROUP1, read-out: Minimal Inhibitory Concentration 50% (MIC50)",8 µg/mL
same,MIC90,"[4]; GROUP1, read-out: Minimal Inhibitory Concentration 90% (MIC90)",32 µg/mL
same,Minimal Inhibitory Concentration Range,Bacteroides ureolyticus,0.125 to 4 µg/mL
same,MIC90,"Bacteroides ureolyticus; Campylobacter ureolyticus, read-out: Minimal Inhibitory Concentration 90% (MIC90)",2 µg/mL
same,MIC50,"Bacteroides ureolyticus; Campylobacter ureolyticus, read-out: Minimal Inhibitory Concentration 50% (MIC50)",0.5 µg/mL
same,MIC50,[5]; [16],2 µg/mL
same,MIC90,[5]; [17],> 32 µg/mL
same,Minimal Inhibitory Concentration Range,[6],8 to 32 µg/mL
same,MIC50,"[6]; Anaerobiospirillum succiniciproducens, read-out: Minimal Inhibitory Concentration 50% (MIC50)",32 µg/mL
same,MIC50,[7]; [16],0.06 µg/mL
same,MIC90,[7]; [17],> 32 µg/mL
same,MIC90,[8]; [17],≤ 0.015 µg/mL
same,MIC50,[8]; [16],≤ 0.015 µg/mL
same,Minimal Inhibitory Concentration Range,[9],0.06 to 1 µg/mL
same,MIC90,"[9]; Prevotella, read-out: Minimal Inhibitory Concentration 90% (MIC90)",0.25 µg/mL
same,MIC50,"[9]; Prevotella, read-out: Minimal Inhibitory Concentration 50% (MIC50)",0.125 µg/mL
same,Minimal Inhibitory Concentration Range,Bilophila wadsworthia,4 to 32 µg/mL
same,MIC90,"Bilophila wadsworthia; Bilophila wadsworthia, read-out: Minimal Inhibitory Concentration 90% (MIC90)",32 µg/mL
same,MIC50,"Bilophila wadsworthia; Bilophila wadsworthia, read-out: Minimal Inhibitory Concentration 50% (MIC50)",16 µg/mL
same,Minimal Inhibitory Concentration Range,Porphyromonas canoris,0.06 to 0.125 µg/mL
same,MIC50,"Porphyromonas canoris; Porphyromonas canoris, read-out: Minimal Inhibitory Concentration 50% (MIC50)",0.06 µg/mL
same,MIC90,"Porphyromonas canoris; Porphyromonas canoris, read-out: Minimal Inhibitory Concentration 90% (MIC90)",0.125 µg/mL
same,Minimal Inhibitory Concentration Range,[10],0.6 µg/mL
same,MIC50,"[10]; Parvimonas micra, read-out: Minimal Inhibitory Concentration 50% (MIC50)",0.5 µg/mL
same,MIC90,"[10]; Parvimonas micra, read-out: Minimal Inhibitory Concentration 90% (MIC90)",0.5 µg/mL
same,MIC50,[11]; [16],> 32 µg/mL
same,MIC90,[11]; [17],> 32 µg/mL
same,MIC90,Prevotella bivia; [17],0.25 µg/mL
same,MIC50,Prevotella bivia; [16],0.125 µg/mL
same,Minimal Inhibitory Concentration Range,Bacteroides gracilis,0.25 to 2 µg/mL
same,MIC90,"Bacteroides gracilis; Campylobacter gracilis, read-out: Minimal Inhibitory Concentration 90% (MIC90)",1 µg/mL
same,MIC50,"Bacteroides gracilis; Campylobacter gracilis, read-out: Minimal Inhibitory Concentration 50% (MIC50)",1 µg/mL
same,Minimal Inhibitory Concentration Range,[12],2 to 32 µg/mL
same,MIC50,"[12]; Anaerobiospirillum thomasii, read-out: Minimal Inhibitory Concentration 50% (MIC50)",4 µg/mL
same,MIC90,"[12]; Anaerobiospirillum thomasii, read-out: Minimal Inhibitory Concentration 90% (MIC90)",16 µg/mL
same,MIC90,[13]; [17],> 32 µg/mL
same,MIC50,[13]; [16],4 µg/mL
same,Minimal Inhibitory Concentration Range,Porphyromonas gingivalis,0.06 to 0.125 µg/mL
same,MIC50,"Porphyromonas gingivalis; Porphyromonas gingivalis, read-out: Minimal Inhibitory Concentration 50% (MIC50)",0.06 µg/mL
same,MIC90,"Porphyromonas gingivalis; Porphyromonas gingivalis, read-out: Minimal Inhibitory Concentration 90% (MIC90)",0.125 µg/mL
same,Minimal Inhibitory Concentration Range,[14],0.03 to 2 µg/mL
same,MIC50,"[14]; Prevotella denticola, read-out: Minimal Inhibitory Concentration 50% (MIC50)",0.06 µg/mL
same,MIC90,Clostridium inocuum; [17],> 32 µg/mL
same,MIC50,Clostridium inocuum; [16],> 32 µg/mL
same,Minimal Inhibitory Concentration Range,[15],0.06 to 0.125 µg/mL
same,MIC90,"[15]; Prevotella heparinolytica, read-out: Minimal Inhibitory Concentration 90% (MIC90)",0.125 µg/mL
same,MIC50,"[15]; Prevotella heparinolytica, read-out: Minimal Inhibitory Concentration 50% (MIC50)",0.125 µg/mL
